According to the supplement of paper PMC10307832:

What was measured:
Test in all cases: relative viability (nuclei count vs DMSO), 5 days (fraction); higher = more cells survive
Carfilzomib + Olaparib = compound: CC(C)C[C@H](NC(=O)[C@H](CCc1ccccc1)NC(=O)CN1CCOCC1)C(=O)N[C@@H](Cc1ccccc1)C(=O)N[C@@H](CC(C)C)C(=O)[C@@]1(C)CO1 [Carfilzomib] + O=C(c1cc(Cc2n[nH]c(=O)c3ccccc23)ccc1F)N1CCN(C(=O)C2CC2)CC1 [Olaparib] (partner 8 µM)
Method in brief: (§1)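 Each reported value is a median over duplicate plates. It expresses relative viability: treated-well nuclei count divided by vehicle-well nuclei count. Lung cancer cell lines in 1536-well plates were dosed by pin tool a day after seeding, alone with one drug or with a fixed anchor-drug dose plus five library-drug doses (not always all listed) in √10 steps, and nuclei were counted after 5 days.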

Crizotinib + Pemetrexed = compound: C[C@@H](Oc1cc(-c2cnn(C3CCNCC3)c2)cnc1N)c1c(Cl)ccc(F)c1Cl [Crizotinib] + Nc1nc2[nH]cc(CCc3ccc(C(=O)N[C@@H](CCC(=O)O)C(=O)O)cc3)c2c(=O)[nH]1 [Pemetrexed] (partner 0.2 µM)
Method in brief: as §1

Olaparib + Foretinib = compound: O=C(c1cc(Cc2n[nH]c(=O)c3ccccc23)ccc1F)N1CCN(C(=O)C2CC2)CC1 [Olaparib] + COc1cc2c(Oc3ccc(NC(=O)C4(C(=O)Nc5ccc(F)cc5)CC4)cc3F)ccnc2cc1OCCCN1CCOCC1 [Foretinib] (partner 0.25 µM)
Method in brief: as §1

Olaparib + Navitoclax = compound: O=C(c1cc(Cc2n[nH]c(=O)c3ccccc23)ccc1F)N1CCN(C(=O)C2CC2)CC1 [Olaparib] + CC1(C)CCC(c2ccc(Cl)cc2)=C(CN2CCN(c3ccc(C(=O)NS(=O)(=O)c4ccc(N[C@H](CCN5CCOCC5)CSc5ccccc5)c(S(=O)(=O)C(F)(F)F)c4)cc3)CC2)C1 [Navitoclax] (partner 0.5 µM)
Method in brief: as §1

Row | Cell Line | relative viability (Carfilzomib + Olaparib; first compound 0.001 µM) | relative viability (Carfilzomib + Olaparib; first compound 0.003162 µM) | relative viability (Carfilzomib + Olaparib; first compound 0.01 µM) | relative viability (Carfilzomib + Olaparib; first compound 0.03162 µM) | relative viability (Carfilzomib + Olaparib; first compound 0.1 µM) | relative viability (Crizotinib + Pemetrexed; first compound 0.01 µM) | relative viability (Crizotinib + Pemetrexed; first compound 0.03162 µM) | relative viability (Crizotinib + Pemetrexed; first compound 0.1 µM) | relative viability (Crizotinib + Pemetrexed; first compound 0.3162 µM) | relative viability (Crizotinib + Pemetrexed; first compound 1 µM) | relative viability (Olaparib + Foretinib; first compound 0.08 µM) | relative viability (Olaparib + Foretinib; first compound 0.253 µM) | relative viability (Olaparib + Foretinib; first compound 2.53 µM) | relative viability (Olaparib + Foretinib; first compound 8 µM) | relative viability (Olaparib + Navitoclax; first compound 0.08 µM) | relative viability (Olaparib + Navitoclax; first compound 0.253 µM) | relative viability (Olaparib + Navitoclax; first compound 2.53 µM) | relative viability (Olaparib + Navitoclax; first compound 8 µM)
1 | NCI-H358 | 0.639 | 0.692 | 0.583 | 0.0792 | 0.0776 | 0.174 | 0.168 | 0.172 | 0.18 | 0.173 | 0.962 | 0.66 | 0.675 | 0.64 | – | – | – | –
2 | NCI-H522 | 0.586 | 0.778 | 0.694 | 0.489 | 0.314 | 1.04 | 0.968 | 0.828 | 1.04 | 0.999 | – | – | – | – | – | – | – | –
3 | NCI-H650 | 0.363 | 0.382 | 0.414 | 0.247 | 0.112 | 1.09 | 0.907 | 0.956 | – | 0.984 | 1.11 | 1.02 | 0.909 | 0.794 | – | – | – | –
4 | NCI-H661 | 0.731 | 0.806 | 0.725 | 0.684 | 0.312 | 0.82 | 0.939 | 0.854 | 1 | 0.904 | 1.16 | 0.97 | 0.948 | 0.775 | – | – | – | –
5 | NCI-H727 | 0.705 | 0.751 | 0.859 | 0.62 | 0.242 | – | – | – | – | – | 0.843 | 1.06 | 0.911 | 0.703 | 0.42 | 0.344 | 0.321 | 0.204
6 | NCI-H1299 | 0.964 | 0.998 | 0.933 | 0.191 | 0.116 | – | – | – | – | – | 1.13 | 1.07 | 1.11 | 1.07 | 1.07 | 0.995 | 1.04 | 0.944
7 | NCI-H1563 | – | – | – | – | – | 0.759 | 0.833 | 0.757 | 0.735 | 0.875 | 0.962 | 0.92 | 1.02 | 0.935 | – | – | – | –
8 | NCI-H1623 | – | – | – | – | – | – | – | – | – | – | 0.954 | 0.88 | 0.814 | 0.647 | – | – | – | –
9 | NCI-H1648 | 1.07 | 0.563 | 0.745 | 0.922 | 0.189 | – | 0.703 | 0.568 | 0.81 | 0.675 | – | – | – | – | – | – | – | –
10 | NCI-H1703 | 0.44 | 0.493 | 0.124 | 0.1 | 0.129 | – | – | – | – | – | 0.469 | 0.328 | 0.333 | 0.364 | 1.29 | 1.06 | 1.05 | 1.43
11 | NCI-H1792 | – | 0.41 | 0.633 | 0.393 | 0.0411 | 0.829 | 1.06 | 0.847 | – | 0.871 | – | – | – | – | 0.666 | 0.555 | 0.505 | 0.512
12 | NCI-H2342 | 0.424 | 0.541 | 0.499 | 0.497 | 0.317 | 0.761 | 0.792 | 0.737 | 0.636 | 0.744 | 1.18 | 1.18 | 0.977 | 0.948 | – | – | – | –
13 | SW 900 | – | 0.756 | 0.323 | 0.174 | 0.168 | 0.505 | 0.437 | 0.493 | 0.476 | 0.466 | 0.999 | 0.744 | 0.994 | 0.659 | – | – | – | –
